Drawing on ChEMBL document CHEMBL2303647, “Data associated with the publication PLoS ONE, 8(3), e57888, (2013) PMID: 23505445. Compounds: GSK PKIS; Assays: NIH NCATS”, this text covers AC50 for 43 compounds.

Test [1] deals with T1, Coelenterazine h 2-monooxygenase (Renilla reniformis, UniProt P27652).
T1 sequence (P27652 whole entry): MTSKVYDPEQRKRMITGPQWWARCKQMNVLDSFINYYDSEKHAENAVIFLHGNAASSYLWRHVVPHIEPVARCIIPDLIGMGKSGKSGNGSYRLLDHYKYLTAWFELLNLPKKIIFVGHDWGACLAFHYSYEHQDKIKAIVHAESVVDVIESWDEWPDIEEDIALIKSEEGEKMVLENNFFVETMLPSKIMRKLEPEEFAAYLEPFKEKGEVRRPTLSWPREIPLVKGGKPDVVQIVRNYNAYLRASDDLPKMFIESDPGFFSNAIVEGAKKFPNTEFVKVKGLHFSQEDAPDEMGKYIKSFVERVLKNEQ
Description: GSK_PKIS: Inhibition of Sea Pansy Luciferase (Data from PubChem: AID 652015) [NIH NCATS]

Test [2] addresses Luciferin 4-monooxygenase (Photinus pyralis, UniProt P08659).
Description: GSK_PKIS: Inhibition of Firefly Luciferase (Data from PubChem: AID 652016) [NIH NCATS]

Luciferin 4-monooxygenase, sequence (P08659 whole entry): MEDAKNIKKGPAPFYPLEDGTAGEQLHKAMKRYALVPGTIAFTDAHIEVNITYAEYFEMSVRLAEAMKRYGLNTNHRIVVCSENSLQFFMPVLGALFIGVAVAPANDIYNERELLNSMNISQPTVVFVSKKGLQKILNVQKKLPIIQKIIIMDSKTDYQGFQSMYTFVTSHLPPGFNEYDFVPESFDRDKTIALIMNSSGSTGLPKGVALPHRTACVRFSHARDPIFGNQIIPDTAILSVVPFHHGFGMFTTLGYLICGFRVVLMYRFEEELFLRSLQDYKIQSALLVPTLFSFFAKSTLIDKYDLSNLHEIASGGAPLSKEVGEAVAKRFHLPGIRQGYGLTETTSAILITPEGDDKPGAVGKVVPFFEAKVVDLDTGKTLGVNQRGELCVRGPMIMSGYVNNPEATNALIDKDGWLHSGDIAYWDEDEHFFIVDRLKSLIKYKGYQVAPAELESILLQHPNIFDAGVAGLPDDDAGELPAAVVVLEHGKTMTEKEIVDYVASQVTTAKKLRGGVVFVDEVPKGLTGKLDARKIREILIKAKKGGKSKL

The term AC50 denotes the midpoint of the concentration-response curve, whichever way the signal moves. For the compound `FC(F)(F)CNc1nccc(-c2cnn3ncccc23)n1` [GW683003X], the half-maximal activity concentration (AC50) result is given as “Phenotype: Inactive; Curve_Description: None” in test [1] and “Phenotype: Activator; Curve_Description: None” in test [2].

Take `c1cnn2ncc(-c3ccnc(NCCCN4CCOCC4)n3)c2c1` [GW683109X]: the AC50 result in test [1] was “Phenotype: Inactive; Curve_Description: None”; in test [2] (read-out: AC50), 41.1 µM.

As for `Cl.O=C(Nc1ccc(Oc2ccc3[nH]c(NC(=O)c4ccco4)nc3c2)cc1)Nc1cc(C(F)(F)F)ccc1F` [GW683134A], the AC50 entry in test [1] was “Phenotype: Inactive; Curve_Description: None”; in test [2] (read-out: AC50), 20.6 µM.

In the case of `CCc1nn2ncccc2c1-c1ccnc(NC2CC2)n1` [GW683768X], the AC50 result in test [1] and in test [2] was “Phenotype: Inactive; Curve_Description: None” throughout.

Regarding `Fc1cccc(COc2ccc(Nc3ncnc4sc(-c5cccs5)cc34)cc2Cl)c1` [GW684626B], the AC50 entry in test [1] and in test [2] was “Phenotype: Inactive; Curve_Description: None” each time.

Take `Nc1nc(-c2ccccn2)c(-c2ccc3ncccc3n2)s1` [GW693481X]: the results for the concentration at half-maximal activity (AC50) result in test [1] and in test [2] (read-out: AC50) were “Phenotype: Inactive; Curve_Description: None” and 32.6 µM, respectively.

Consider `Cl.Fc1cccc(COc2ccc(Nc3ncnc4cc(-c5ccc[nH]5)sc34)cc2Cl)c1` [GW693881A], for which the half-maximal activity concentration (AC50) entry in test [1] and in test [2] was “Phenotype: Inactive; Curve_Description: None” in each case.

Consider `COC(=O)Nc1nc2ccc(Oc3ccc(NC(=O)Nc4cc(C(F)(F)F)ccc4F)cc3)cc2s1.Cl` [GW693917A], for which the AC50 result in test [1] is “Phenotype: Inactive; Curve_Description: None”; in test [2] (read-out: AC50), 13 µM.

For `COC(=O)Nc1nc2cc(Oc3ccc(NC(=O)Nc4cccc(Br)c4)cc3)ccc2[nH]1.Cl` [GW694234A], the half-maximal activity concentration (AC50) entry in test [1] and in test [2] was “Phenotype: Inactive; Curve_Description: None” throughout.

Turning to `COC(=O)Nc1nc2cc(Oc3ccc(NC(=O)Nc4ccccc4)cc3)ccc2[nH]1.Cl` [GW694590A], the results for the AC50 result in test [1] and in test [2] (read-out: AC50) were “Phenotype: Inactive; Curve_Description: None” and 14.6 µM, respectively.

Regarding `c1ccc(-c2n[nH]cc2-c2ccnc(-c3ccc(OCCN4CCOCC4)cc3)c2)nc1` [GW695874X], the AC50 entry in test [1] and in test [2] was “Phenotype: Inactive; Curve_Description: None” in each case.

For the compound `CN1CCN(CCCNc2nc3ccc(Oc4ccc(NC(=O)Nc5cc(C(F)(F)F)ccc5F)cc4)cc3[nH]2)CC1.Cl` [GW700494A], the concentration at half-maximal activity (AC50) in test [1] (read-out: AC50) was 23.1 µM; in test [2] it was “Phenotype: Inactive; Curve_Description: None”.

With `COc1ccc(CNC(=O)c2ccc(-c3cc(-c4nnc(C)o4)ccc3C)cc2)cc1` [GW701032X], the half-maximal activity concentration (AC50) result in test [1] and in test [2] was “Phenotype: Inactive; Curve_Description: None” in each case.

`COC(=O)Nc1nc2cc(Oc3ccc(NC(=O)Nc4cccc(C(=O)O)c4)cc3)ccc2[nH]1` [GW701427A]: the AC50 came out at 41.1 µM in test [1] (read-out: AC50) and 0.116 µM in test [2] (read-out: AC50).

Take `CC(=O)Nc1cccc(C#Cc2cncnc2Nc2ccc(OCc3cccc(F)c3)c(Cl)c2)c1` [GW703087X]: the AC50 entry in test [1] and in test [2] was “Phenotype: Inactive; Curve_Description: None” throughout.

Take `c1cc(-c2cnn3nc(N4CCOCC4)ccc23)nc(NC2CC2)n1` [GW708336X]: the AC50 result in test [1] is “Phenotype: Inactive; Curve_Description: None”; in test [2] (read-out: AC50) it was 4.61 µM.

Regarding `Cc1nnc(-c2ccc(C)c(-c3ccc(C(=O)NCc4ccc(Cl)cc4)cc3)c2)o1` [GW708893X], the AC50 result in test [1] and in test [2] was “Phenotype: Inactive; Curve_Description: None” in each case.

`Cl.O=C(Nc1ccc(Oc2ccc3[nH]c(NC(=O)c4ccccc4)nc3c2)cc1)Nc1cc(C(F)(F)F)ccc1F` [GW709042A]: the AC50 entry in test [1] and in test [2] was “Phenotype: Inactive; Curve_Description: None” each time.

For `c1ccc(-c2n[nH]cc2-c2ccnc(-c3ccc(OCCn4ccnc4)cc3)c2)nc1` [GW711782X], the AC50 entry in test [1] and in test [2] was “Phenotype: Inactive; Curve_Description: None” throughout.

With `Cc1nnc(-c2cccc(-c3ccc(C(=O)NCC4CC4)cc3)c2)o1` [GW734508X], the half-maximal activity concentration (AC50) is 36.6 µM in test [1] (read-out: AC50) and “Phenotype: Inactive; Curve_Description: None” in test [2].

Regarding `Cc1ccc(NC(=O)c2ccoc2)cc1-c1ccc(C(=O)NCC2CC2)cc1` [GW743024X], the AC50 result in test [1] is “Phenotype: Inactive; Curve_Description: None”; in test [2] (read-out: AC50) it was 41.1 µM.

For `Cl.NC(=O)c1cccc(Nc2nccc(Nc3cccc(F)c3)n2)c1` [GW759710A], the concentration at half-maximal activity (AC50) result in test [1] was “Phenotype: Inactive; Curve_Description: None”; in test [2] (read-out: AC50) it was 0.73 µM.

Turning to `COc1ccc(-c2oc3ncnc(N)c3c2-c2ccc(NC(=O)Nc3cc(C(F)(F)F)ccc3F)cc2)cc1.Cl` [GW768505A], the concentration at half-maximal activity (AC50) result in test [1] and in test [2] was “Phenotype: Inactive; Curve_Description: None” throughout.

Regarding `Cc1ccc(NC(=O)c2ccnc(N3CCCC3)c2)cc1-c1ccc(C(=O)NCC2CC2)cc1` [GW769076X], the AC50 in test [1] (read-out: AC50) was 29.1 µM; in test [2], “Phenotype: Inactive; Curve_Description: None”.

In the case of `Cc1nn(C)c2cc(N(C)c3ccnc(Nc4cccc(S(N)(=O)=O)c4)n3)ccc12.Cl` [GW770220A], the concentration at half-maximal activity (AC50) entry in test [1] and in test [2] was “Phenotype: Inactive; Curve_Description: None” throughout.

In the case of `Cl.Nc1ncnc2occ(-c3ccc(NC(=O)Nc4cc(C(F)(F)F)ccc4F)cc3)c12` [GW770249A], the concentration at half-maximal activity (AC50) result in test [1] and in test [2] was “Phenotype: Inactive; Curve_Description: None” throughout.

Regarding `Nc1ncnc2occ(-c3ccc(NC(=O)Nc4cc(C(F)(F)F)ccc4F)cc3)c12` [GW770249X], the AC50 result in test [1] and in test [2] was “Phenotype: Inactive; Curve_Description: None” throughout.

With `Cc1c2ccc(N(C)c3ccnc(Nc4cccc(S(N)(=O)=O)c4)n3)cc2nn1C` [GW771127A], the values for the AC50 in test [1] (read-out: AC50) and in test [2] (read-out: AC50) were 18.3 µM and 13 µM, respectively.

On to `CNC(=O)c1cccc(C#Cc2cncnc2Nc2ccc(OCc3cccc(F)c3)c(Cl)c2)c1` [GW772405X], for which the AC50 result in test [1] and in test [2] was “Phenotype: Inactive; Curve_Description: None” throughout.

Consider `N#Cc1cccc(Nc2nccc(-c3cnn4ncccc34)n2)c1` [GW778894X], for which the AC50 entry in test [1] and in test [2] was “Phenotype: Inactive; Curve_Description: None” in each case.

In the case of `CCN(CC)Cc1ccc(Nc2nccc(-c3cnn4ncccc34)n2)cc1` [GW780056X], the values for the AC50 in test [1] (read-out: AC50) and in test [2] were 20.6 µM and “Phenotype: Inactive; Curve_Description: None”, respectively.

In the case of `Nc1nc(-c2cccc(Cl)c2)c(-c2ccc3ncccc3n2)s1` [GW780159X], the AC50 result in test [1] and in test [2] was “Phenotype: Inactive; Curve_Description: None” each time.

With `Clc1ccc(CNc2nccc(-c3cnn4ncccc34)n2)cc1` [GW781673X], the AC50 entry in test [1] and in test [2] was “Phenotype: Inactive; Curve_Description: None” in each case.

As to `NC(=O)c1cccc(Nc2nccc(Nc3cccc4[nH]ncc34)n2)c1` [GW782612X], the half-maximal activity concentration (AC50) entry in test [1] is “Phenotype: Inactive; Curve_Description: None”; in test [2] (read-out: AC50), 13 µM.

For `Cc1ccc(C(=O)NC2CCCCC2)cc1-c1ccc(C(=O)NCC2CC2)cc1` [GW782907X], the AC50 result in test [1] and in test [2] was “Phenotype: Inactive; Curve_Description: None” each time.

With `Cc1ccc(C(=O)NC2CCC2)cc1-c1ccc(C(=O)NCC2CC2)cc1` [GW782912X], the half-maximal activity concentration (AC50) result in test [1] is “Phenotype: Inactive; Curve_Description: None”; in test [2] (read-out: AC50), 29.1 µM.

Regarding `COc1cccc(-n2ncc3c(N/N=C/c4ccc(C(=O)NCCN(C)C)cc4)ncnc32)c1.Cl` [GW784307A], the AC50 result is “Phenotype: Inactive; Curve_Description: None” in test [1] and 16.3 µM in test [2] (read-out: AC50).

For the compound `CN1CCN(Cc2ccc(-c3cc4ncnc(Nc5ccc(OCc6cccc(F)c6)c(Cl)c5)c4s3)o2)CC1` [GW784684X], the AC50 in test [1] (read-out: AC50) was 20.6 µM; in test [2], “Phenotype: Inactive; Curve_Description: None”.

On to `COc1cccc(-n2ncc3c(N/N=C/c4ccncc4)ncnc32)c1` [GW784752X], for which the figures for the half-maximal activity concentration (AC50) entry in test [1] and in test [2] (read-out: AC50) were “Phenotype: Activator; Curve_Description: None” and 6.51 µM, respectively.

Consider `CCn1c(-c2nonc2N)nc2ccc(F)cc21` [GW785404X], for which the half-maximal activity concentration (AC50) entry in test [1] and in test [2] was “Phenotype: Inactive; Curve_Description: None” throughout.

As to `Nc1nc(-c2ccc(F)cc2)c(-c2ccc3ncccc3n2)s1` [GW785804X], the concentration at half-maximal activity (AC50) entry in test [1] and in test [2] was “Phenotype: Inactive; Curve_Description: None” each time.

Take `Cc1ccc(C(=O)NC(C)C)cc1-c1ccc(C(=O)NCC2CC2)cc1` [GW785974X]: the AC50 entry in test [1] and in test [2] was “Phenotype: Inactive; Curve_Description: None” throughout.

Consider `Cc1cccc(-c2n[nH]cc2-c2ccc3ncccc3n2)n1` [GW786460X], for which the AC50 result in test [1] and in test [2] was “Phenotype: Inactive; Curve_Description: None” each time.
